In US10618901B2 (GlaxoSmithKline Intellectual Property Development Limited, priority 2014, dated 2020):

target: T1, 6HIS-Tev-LRRK2 (1326-2527) (Homo sapiens, UniProt Q5S007); test: LRRK2 Inhibition Mass Spectrometry Assay; assay type: biochemical; conditions: 60 nM LRRK2 enzyme; 25 uM LRRKtide; 20 uM ATP; read-out: LRRK2 Inhibition Mass Spectrometry Assay (pIC50) (converted)
T1 construct: A LRRK2 cDNA encoding residues 1326-2527 was received from Dundee University; made in house; host or cells: Spodoptera frugiperda Sf9 (baculovirus, pFB-HTb)
T1 sequence (Q5S007 1326-2527): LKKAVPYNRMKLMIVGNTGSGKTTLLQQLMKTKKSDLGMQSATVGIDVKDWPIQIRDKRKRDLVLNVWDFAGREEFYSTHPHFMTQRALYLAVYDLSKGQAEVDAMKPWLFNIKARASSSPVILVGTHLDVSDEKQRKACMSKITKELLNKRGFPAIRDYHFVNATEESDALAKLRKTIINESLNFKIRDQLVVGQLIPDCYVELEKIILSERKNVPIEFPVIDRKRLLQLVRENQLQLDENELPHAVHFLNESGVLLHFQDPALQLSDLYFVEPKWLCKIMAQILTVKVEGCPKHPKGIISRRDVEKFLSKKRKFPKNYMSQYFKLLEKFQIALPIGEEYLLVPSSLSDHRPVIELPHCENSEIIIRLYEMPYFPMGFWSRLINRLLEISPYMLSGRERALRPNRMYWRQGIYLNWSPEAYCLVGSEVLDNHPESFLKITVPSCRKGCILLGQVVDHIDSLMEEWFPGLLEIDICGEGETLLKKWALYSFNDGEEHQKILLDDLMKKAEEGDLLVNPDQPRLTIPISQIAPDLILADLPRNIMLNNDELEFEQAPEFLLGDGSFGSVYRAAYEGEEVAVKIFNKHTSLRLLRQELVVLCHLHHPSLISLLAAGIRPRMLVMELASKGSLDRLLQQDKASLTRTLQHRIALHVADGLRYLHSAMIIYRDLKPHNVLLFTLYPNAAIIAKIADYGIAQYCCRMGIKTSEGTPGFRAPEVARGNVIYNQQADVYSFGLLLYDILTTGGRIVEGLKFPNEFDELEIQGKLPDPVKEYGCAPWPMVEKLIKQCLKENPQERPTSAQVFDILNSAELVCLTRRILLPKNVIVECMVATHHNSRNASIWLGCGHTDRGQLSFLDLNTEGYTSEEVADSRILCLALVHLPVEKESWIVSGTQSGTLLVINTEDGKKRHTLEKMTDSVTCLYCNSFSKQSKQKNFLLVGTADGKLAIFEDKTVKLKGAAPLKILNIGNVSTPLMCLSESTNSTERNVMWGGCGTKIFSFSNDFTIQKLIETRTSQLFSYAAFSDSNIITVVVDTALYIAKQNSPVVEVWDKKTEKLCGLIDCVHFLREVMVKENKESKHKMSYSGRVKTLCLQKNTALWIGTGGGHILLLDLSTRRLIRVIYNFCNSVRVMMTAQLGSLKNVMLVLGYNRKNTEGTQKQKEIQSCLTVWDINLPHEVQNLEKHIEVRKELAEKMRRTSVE
Protocol: A LRRK2 cDNA encoding residues 1326-2527 was received from Dundee University (described in M. Jaleel et al., 2007, Biochem J, 405: 407-417). This gene fragment was subcloned into pFB-HTb (Invitrogen) using BamHI and NotI restriction sites. The LRRK2 plasmid was recombined into the baculovirus genome according to the BAC-to-BAC protocol described by Invitrogen. Transfection into Spodoptera frugiperda (Sf9) insect cells was performed using Cellfectin (Invitrogen), according to the manufacturer's protocol to generate P1 and P2 baculovirus stocks.
Sf9 cells were grown in HyClone SFX (Thermo Scientific) growth media at 27° C., 80 rpm in shake flask until of a sufficient volume to inoculate a bioreactor. The cells were grown in a 20 liter working volume Wave bioreactor (GE Healthcare) at 27° C., 50% dissolved oxygen and an agitation rate 22 rocks per minute, 10 degree rock angle, 200 ml/min air with a cell concentration of approximately 6×e6 cells/ml. The cells were infected with P2 Baculovirus at a multiplicity of infection (MOI) of 3. The cultivation was continued for a 48 hour expression phase. The infected cells were removed from the growth media by centrifugation at 2500 g using a Sorvall RC 3C Plus centrifuge at 2500 g for 20 minutes. The cell pellet was immediately frozen and subsequently supplied for purification.
A 260 g pellet was allowed to thaw in a water bath at 27° C. with 800 ml lysis buffer/buffer A (50 mm Tris-HCl pH 8.5, 300 mM NaCl, 1 mm DTT, 10% glycerol, 1 ml/L calbiochem complete protease inhibitor cocktail and benzonase (50 ul/800 ml)) before being dounce homogenised on ice using 20 strokes per 100 ml. The suspension was packed in ice and sonicated at 50% amplitude for 3 min 10 sec on/off using a ¾″ probe. The suspension was then centrifuged at 100,000 g for 90 min, at 4° C.
The lysate (700 ml) was decanted from the insoluble pellet and contacted for 3 h at 4 C with 10 ml His bind Ni NTA resin by end over end mixing. The resin was recovered by centrifugation, 3000 g, 5 min at 4 C, and packed in an XK16 column. The column was then washed with 10 column volumes buffer A, 10 column volumes buffer B (buffer A+1M NaCl) and 10 column volumes buffer C (buffer A+20 mM imidazole). The column was then eluted with 15 column volumes buffer D (buffer A+300 mM imidazole) collecting 2 ml fractions. All washes and elution were conducted at 4 ml/min.
Fractions identified by SDS-PAGE as containing protein of interest were pooled and loaded directly onto a 320 ml SEC Superdex 200 pg column that was pre-equilibrated with buffer E (50 mM Tris-HCl pH 8.5, 300 mM NaCl, 10% glycerol, 1 mM DTT). The column was loaded and eluted with 1.2 column volumes buffer E at 2 ml/min collecting 2 ml fractions. Fractions identified by SDS-PAGE as containing protein of interest were tested for activity.
Production of LRRKtide for LRRK2 Inhibition Mass Spectrometry Assay
The ‘LRRKtide’ peptide H-RLGRDKYKTLRQIRQ-OH was synthesized as follows. The protected peptide was assembled on a solid-phase synthesiser using preloaded Wang resin and utilising standard Fmoc synthesis protocols. The crude peptide was obtained after cleavage from the resin with a mixture of trifluoroacetic acid (TFA), triisopropylsilane and water (95:2.5:2.5) for 3 hours at room temperature and was then purified using a C18 reverse-phase column utilising a 0.1% TFA-buffered water/acetonitrile gradient. The resulting fractions were analysed and fractions which were >95% pure by analytical HPLC and giving the correct molecular weight (mw) (by MALDiTOF mass spectroscopy) were pooled and freeze dried. The final material was analysed by HPLC and MALDiTOF mass spectroscopy.
LRRK2 Inhibition Mass Spectrometry Assay
This assay for Leucine Rich Repeat Kinase 2 (LRRK2) inhibition is based on the direct measurement of the peptide ‘LRRKtide’ (LRRKtide: RLGRDKYKT*LRQIRQ (H-RLGRDKYKTLRQIRQ-OH used for this screen)) and phosphorylated ‘LRRKtide’ using a high throughput RapidFire mass spectrometry assay. […]

`CCOc1nc(Nc2cnn([C@@H]3CCN(C4COC4)C[C@H]3F)c2Cl)nc2[nH]ccc12` (single isomer, unassigned) [Example E105] and `CCOc1nc(Nc2cnn([C@H]3CCN(C4COC4)C[C@@H]3F)c2Cl)nc2[nH]ccc12` (single isomer, unassigned) [Example E104] are the same in IC50: 7.94 nM for the first, 7.94 nM for the second.

`CCOc1nc(Nc2cnn(C3CN(C4COC4)CCO3)c2Cl)nc2[nH]ccc12` (single isomer, unassigned) [Example E141, N-(5-chloro-1-(4-(oxetan-3-yl)morpholin-2-yl)-1H-pyrazol-4-yl)-4-ethoxy-7H-pyrrolo[2,3-d]pyrimidin-2-amine] and `CCOc1nc(Nc2cnn(C3CN(C4COC4)CCC3(F)F)c2Cl)nc2[nH]ccc12` (single isomer, unassigned) [Example E124, N-(5-chloro-1-(4,4-difluoro-1-(oxetan-3-yl)piperidin-3-yl)-1H-pyrazol-4-yl)-4-ethoxy-7H-pyrrolo[2,3-d]pyrimidin-2-amine] are within 1.5-fold of each other in IC50: 7.94 nM for the first, 10 nM for the second.

`CCOc1nc(Nc2cnn(C3CC(N4CCOCC4)C3)c2C)nc2[nH]ccc12` (stereo not drawn) [Example E86, 4-ethoxy-N-(5-methyl-1-(3-morpholinocyclobutyl)-1H-pyrazol-4-yl)-7H-pyrrolo[2,3-d] pyrimidin-2-amine] and `CCOc1nc(Nc2cnn(C3CCOCC3C)c2C)nc2[nH]ccc12` (single isomer, unassigned) [Example E113, (cis)-4-ethoxy-N-(5-methyl-1-(3-methyltetrahydro-2H-pyran-4-yl)-1H-pyrazol-4-yl)-7H-pyrrolo[2,3-d]pyrimidin-2-amine] are the same in IC50: 10 nM for the first, 10 nM for the second.

`CCOc1nc(Nc2cnn(C3CCN(C4COC4)CC3(F)F)c2Cl)nc2[nH]ccc12` (single isomer, unassigned) [Example E134, N-(5-chloro-1-(3,3-difluoro-1-(oxetan-3-yl)piperidin-4-yl)-1H-pyrazol-4-yl)-4-ethoxy-7H-pyrrolo[2,3-d]pyrimidin-2-amine] and `CCOc1nc(Nc2cnn(C3CN(C)CCC3(F)F)c2C)nc2[nH]ccc12` (single isomer, unassigned) [Example E121, N-(1-(4,4-difluoro-1-methylpiperidin-3-yl)-5-methyl-1H-pyrazol-4-yl)-4-ethoxy-7H-pyrrolo[2,3-d]pyrimidin-2-amine] are within 1.5-fold of each other in IC50: 7.94 nM for the first, 10 nM for the second.

In the case of `CCOc1nc(Nc2cnn(CCN3CCO[C@H](C(F)F)C3)c2C)nc2[nH]ccc12` [Example E100, (S)—N-(1-(2-(2-(difluoromethyl)morpholino)ethyl)-5-methyl-1H-pyrazol-4-yl)-4-ethoxy-7H-pyrrolo[2,3-d]pyrimidin-2-amine], the IC50 is reported as 7.94 nM.
